What is called IC50 is the midpoint of a concentration-inhibition curve. Usually inhibition stands for the drop in the measured response relative to a control, in per cent. The term half-life denotes the time needed for the level to fall by half in the phase considered.

The subject of one series is SW707. The experiment in a line: Cytotoxicity against human SW707 cells at 1.6 to 100 ug/ml after 72 hrs by crystal violet assay. Type of series: functional, cell-based.
Series [1] deals with T1, Methionine aminopeptidase (Escherichia coli K-12, UniProt P0AE18).
T1 sequence (P0AE18 whole entry): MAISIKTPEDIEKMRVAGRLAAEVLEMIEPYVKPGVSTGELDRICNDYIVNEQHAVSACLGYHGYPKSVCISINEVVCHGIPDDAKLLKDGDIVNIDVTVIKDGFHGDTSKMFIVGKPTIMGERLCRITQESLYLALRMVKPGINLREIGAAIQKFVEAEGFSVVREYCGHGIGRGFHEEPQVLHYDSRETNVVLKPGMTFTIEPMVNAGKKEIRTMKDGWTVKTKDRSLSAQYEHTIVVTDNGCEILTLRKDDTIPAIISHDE
The experiment in a line: Inhibition of C-terminal poly-His-tagged Escherichia coli MetAP expressed in Escherichia coli BL21(DE3) incubated for 30 mins before MGMM substrate addition by fluorescence assay. Particulars: read-out: IC50.

Another series deals with Escherichia coli. The experiment in a line: Antimicrobial activity against Escherichia coli BL21(DE3) assessed as inhibition of bacterial growth at 200 uM incubated at 37 degC for 7 hrs. Type of series: functional. The conditions noted are these: BL21-DE3, 7 h.
A further series relates to Ca-Ski. The experiment in a line: Cytotoxicity against human CaSki cells at 1.6 to 100 ug/ml after 72 hrs by crystal violet assay. The class given is functional, cell-based.
In another series the test system is BT-474. Nature of the series: Cytotoxicity against human BT474 cells at 1.6 to 100 ug/ml after 72 hrs by crystal violet assay. The class given is functional, cell-based.
Series [2] in a line: Half life assessed as decomposition into amines and unsaturated ketones at 250 uM in 50 mM Tris/maleate pH 7.5 buffer by HPLC method. The class given is physicochemical. Particulars: Tris/maleate buffer, pH 7.5.
Series [3] addresses Methionine aminopeptidase 2 (Homo sapiens, UniProt P50579). The conditions noted are these: sf9.
Description: Inhibition of human MetAP-2 expressed in Sf9 cells incubated for 60 mins before MGMM substrate addition by fluorescence assay
The next series has as its system CAPAN-1. The experiment in a line: Cytotoxicity against human Capan1 cells at 1.6 to 100 ug/ml after 72 hrs by crystal violet assay. Type of series: functional, cell-based.
Series [4] is described as follows: Cytotoxicity against human Flow 2002 cells at 1.6 to 100 ug/ml after 72 hrs by crystal violet assay. The conditions noted are these: flow 2002, 72 h. Type of series: cell-based.
For the next series, the system named is A-431. The experiment in a line: Cytotoxicity against human A431 cells at 1.6 to 100 ug/ml after 72 hrs by crystal violet assay. Type of series: functional, cell-based.
For the next series, the system named is Calu-6. Nature of the series: Cytotoxicity against human Calu6 cells at 1.6 to 100 ug/ml after 72 hrs by crystal violet assay. The class given is functional, cell-based.
For series [5], the target named is Methionine aminopeptidase (Staphylococcus aureus (strain COL), UniProt Q5HEN6). Nature of the series: Inhibition of N-terminal poly-His-tagged Staphylococcus aureus COL MetAP expressed in Escherichia coli BL21(DE3) incubated for 30 mins before MGMM substrate addition by fluorescence assay. Also noted: species or system Staphylococcus aureus subsp. aureus COL. The conditions noted are these: read-out: IC50.

The test system of a further series is A 172. Nature of the series: Cytotoxicity against human A172 cells at 1.6 to 100 ug/ml after 72 hrs by crystal violet assay. Type of series: functional, cell-based.
The subject of another series is MeWo. Nature of the series: Cytotoxicity against human MeWo cells at 1.6 to 100 ug/ml after 72 hrs by crystal violet assay. The class given is functional, cell-based.
For the next series, the system named is HaCaT. Nature of the series: Cytotoxicity against human HaCaT cells at 1.6 to 100 ug/ml after 72 hrs by crystal violet assay. Type of series: cell-based.

The source made the active and inactive calls.

Sequence of Methionine aminopeptidase (Staphylococcus aureus (strain COL), UniProt Q5HEN6) (Q5HEN6 whole entry): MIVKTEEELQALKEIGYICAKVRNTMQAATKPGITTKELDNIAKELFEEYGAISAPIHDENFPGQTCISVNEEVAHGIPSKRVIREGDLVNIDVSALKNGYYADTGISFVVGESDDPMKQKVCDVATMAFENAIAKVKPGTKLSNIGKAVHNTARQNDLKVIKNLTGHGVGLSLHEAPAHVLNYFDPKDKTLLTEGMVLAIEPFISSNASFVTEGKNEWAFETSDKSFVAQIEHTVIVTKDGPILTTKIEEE
Sequence of Methionine aminopeptidase 2 (P50579 whole entry): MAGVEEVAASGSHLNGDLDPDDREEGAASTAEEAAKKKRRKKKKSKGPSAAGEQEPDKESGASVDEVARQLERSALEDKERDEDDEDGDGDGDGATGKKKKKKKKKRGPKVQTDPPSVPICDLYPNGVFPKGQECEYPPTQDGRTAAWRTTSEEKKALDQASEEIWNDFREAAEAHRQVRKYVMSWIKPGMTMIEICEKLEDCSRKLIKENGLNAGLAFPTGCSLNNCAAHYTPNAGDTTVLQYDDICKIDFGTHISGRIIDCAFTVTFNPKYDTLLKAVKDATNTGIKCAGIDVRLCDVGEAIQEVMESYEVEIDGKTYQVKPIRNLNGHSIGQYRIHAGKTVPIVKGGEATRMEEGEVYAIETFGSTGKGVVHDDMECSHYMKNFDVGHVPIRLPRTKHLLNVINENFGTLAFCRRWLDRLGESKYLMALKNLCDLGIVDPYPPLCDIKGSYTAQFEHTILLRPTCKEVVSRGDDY

As for `Cl.O=C1c2ccccc2CC1CN1CCCCC1` (stereo unspecified), the outcome with SW707, in the series with Ca-Ski, in the series with BT-474, with CAPAN-1, with A-431 and in the series with Calu-6 was Active. Further, the result in the series on A 172 and in the series on MeWo was Active. Besides, the values for the IC50 in series [1], in series [3] and in series [5] were 3100 nM, “Not Active” and 25000 nM, respectively. For the same molecule, the inhibition at 200 µM in the series with Escherichia coli turned out to be 50%. Further, the half-life at 250 µM in [2] was 16 min. The Activity entry (in series [4]; with HaCaT) was “Toxic” each time.

Turning to `C=C1Cc2ccc(OC)cc2C1=O`, the result with SW707, with Ca-Ski, in the series with BT-474, in the series with CAPAN-1, in the series on A-431 and with Calu-6 was Active. Further, the result with A 172 and with MeWo was Active. Also, the figures for the half-maximal inhibitory concentration (IC50) in series [1] and in series [3] were 670 nM and “Not Active”, respectively. Further, the Activity result (in [4]; with HaCaT) was “Toxic” each time.

In the case of `C=C1Cc2cc(Br)ccc2C1=O`, the outcome in the series with SW707, in the series on Ca-Ski, with BT-474, with CAPAN-1, in the series on A-431 and in the series on Calu-6 was Active. Also, the outcome in the series with A 172 and in the series with MeWo was Active. In addition, the figures for the IC50 in series [1] and in series [3] were 190 nM and “Not Active”, respectively. For the same molecule, the inhibition at 200 µM in the series on Escherichia coli stood at 21%. For the same molecule, the Activity entry (in series [4]; with HaCaT) was “Toxic” each time.

On to `C=C1Cc2cc(C)ccc2C1=O`, for which the outcome in the series with SW707, with Ca-Ski, with BT-474, in the series with CAPAN-1, in the series on A-431 and in the series with Calu-6 was Active. The result with A 172 and with MeWo was Active. Besides, the figures for the IC50 in [1], in series [3] and in series [5] were 400 nM, “Not Active” and 13300 nM, respectively. In addition, in the series with Escherichia coli, the inhibition at 200 µM stood at 100%. In addition, the Activity result (in series [4]; with HaCaT) was “Toxic” throughout.

For `CN(C)CC1Cc2ccccc2C1=O.Cl` (stereo unspecified), the outcome in the series on SW707, with Ca-Ski, in the series with BT-474, in the series with CAPAN-1, in the series on A-431 and with Calu-6 was Active. In addition, the outcome in the series on A 172 and in the series on MeWo was Active. The IC50 in [1] was 2800 nM; in [3], “Not Active”; in [5], 26000 nM. The inhibition at 200 µM in the series with Escherichia coli was found to be 90%. Further, the half-life at 250 µM in series [2] amounted to 10 min. The Activity result (in series [4]; with HaCaT) was “Toxic” in each case.

Consider `COc1ccc2c(c1)C(=O)C(CN(C)C)C2.Cl` (stereo unspecified), for which the outcome in the series on SW707, with Ca-Ski, in the series with BT-474, in the series with CAPAN-1, in the series with A-431 and in the series on Calu-6 was Active. In addition, the outcome in the series on A 172 and with MeWo was Active. The IC50 is 830 nM in series [1], “Not Active” in series [3] and 17000 nM in [5]. Moreover, the inhibition at 200 µM in the series on Escherichia coli was 19%. For the same molecule, the half-life at 250 µM in series [2] was determined as 12 min. For the same molecule, the Activity entry (in [4]; in the series on HaCaT) was “Toxic” throughout.

Turning to `Cc1ccc2c(c1)C(=O)C(CN(C)C)C2.Cl` (stereo unspecified), the result in the series on SW707, with Ca-Ski, in the series with BT-474, in the series with CAPAN-1, in the series on A-431 and in the series on Calu-6 was Active. Moreover, the result in the series on A 172 and with MeWo was Active. For the same molecule, the IC50 in series [1] was 700 nM; in series [3], “Not Active”; in series [5] it was 15000 nM. The inhibition at 200 µM in the series on Escherichia coli is 45%. Further, the half-life at 250 µM in series [2] was determined as 14 min. Moreover, the Activity result (in series [4]; in the series with HaCaT) was “Toxic” throughout.

Consider `C=C1Cc2ccc(C)cc2C1=O`, for which the result with SW707, in the series with Ca-Ski, in the series on BT-474, with CAPAN-1, in the series with A-431 and with Calu-6 was Active. Also, the result with A 172 and in the series on MeWo was Active. For the same molecule, the IC50 was 800 nM in series [1] and “Not Active” in series [3]. Moreover, the Activity result (in series [4]; in the series on HaCaT) was “Toxic” in each case.

In the case of `C=C1Cc2cc(OC)ccc2C1=O`, the outcome with SW707, with Ca-Ski, in the series with BT-474, in the series on CAPAN-1, in the series with A-431 and with Calu-6 was Active. In addition, the outcome with A 172 and in the series on MeWo was Active. Moreover, the concentration for half-maximal inhibition (IC50) was 980 nM in [1] and “Not Active” in series [3]. Besides, the Activity entry (in series [4]; with HaCaT) was “Toxic” each time.

With `CN(C)CC1Cc2cc(Cl)ccc2C1=O.Cl` (stereo unspecified), the result in the series with SW707, in the series on Ca-Ski, in the series with BT-474, with CAPAN-1, in the series with A-431 and in the series with Calu-6 was Active. Besides, the result with A 172 and in the series with MeWo was Active. In addition, the results for the half-inhibitory concentration (IC50) in [1], in series [3] and in series [5] were 840 nM, “Not Active” and 7000 nM, respectively. Besides, in the series with Escherichia coli, the inhibition at 200 µM came to 71%. Also, the half-life at 250 µM in series [2] stood at 7 min. In addition, the Activity result (in series [4]; with HaCaT) was “Toxic” throughout.

Turning to `CN(C)CC1Cc2c(cccc2C(F)(F)F)C1=O.Cl` (stereo unspecified), the outcome in the series with SW707, in the series on Ca-Ski, in the series with BT-474, with CAPAN-1, in the series with A-431 and with Calu-6 was Active. The result with A 172 and in the series on MeWo was Active. Also, the results for the IC50 in [1], in series [3] and in [5] were 7000 nM, “Not Active” and 46000 nM, respectively. Besides, the inhibition at 200 µM with Escherichia coli was found to be 22%. Besides, the half-life at 250 µM in series [2] was 1730 min. Moreover, the Activity result (in series [4]; in the series with HaCaT) was “Toxic” in each case.

`COc1ccc2c(c1)CC(CN(C)C)C2=O.Cl` (stereo unspecified): the result in the series with SW707, with Ca-Ski, in the series with BT-474, in the series on CAPAN-1, in the series on A-431 and with Calu-6 was Active. Further, the outcome in the series with A 172 and with MeWo was Active. For the same molecule, the IC50 was 2000 nM in series [1], “Not Active” in [3] and 42100 nM in [5]. Moreover, in the series with Escherichia coli, the inhibition at 200 µM is 35%. In series [2], the half-life at 250 µM was 45 min. In addition, the Activity result (in series [4]; in the series with HaCaT) was “Toxic” throughout.

As for `C=C1Cc2cc(Cl)ccc2C1=O`, the result in the series with SW707, in the series on Ca-Ski, in the series on BT-474, with CAPAN-1, in the series on A-431 and in the series with Calu-6 was Active. For the same molecule, the outcome with A 172 and in the series with MeWo was Active. Moreover, the IC50 was 230 nM in series [1] and “Not Active” in series [3]. Further, in the series on Escherichia coli, the inhibition at 200 µM came to 27%. In addition, the Activity entry (in series [4]; with HaCaT) was “Toxic” throughout.
